ChEMBL document CHEMBL3352712, “Structural modifications of coumarin derivatives: Determination of antioxidant and lipoxygenase (LOX) inhibitory activity” (Bioorg Med Chem, 2014)

What was measured:
[1] = Antioxidant activity assessed as DPPH radical scavenging activity at 100 uM after 20 mins by spectrophotometry; assay type: physicochemical
[2] = Antioxidant activity assessed as DPPH radical scavenging activity at 100 uM after 60 mins by spectrophotometry; assay type: physicochemical; conditions: 1 h
[3] = Antioxidant activity assessed as inhibition of AAPH-induced linoleic acid lipid peroxidation at 100 uM; assay type: physicochemical
[4] = target: Lipoxygenase (Glycine max, UniProt Q39829); experiment: Inhibition of soybean LOX assessed as reduction in conversion of sodium linoleate to 13-hydroperoxylinoleic acid by UV spectroscopy
[5] = target: Lipoxygenase (Glycine max) (UniProt Q39829); experiment: Inhibition of soybean LOX assessed as reduction in conversion of sodium linoleate to 13-hydroperoxylinoleic acid at 100 uM by UV spectroscopy

inhibition (INH) [1] | inhibition (INH) [2] [%] | inhibition (INH) [3] [%] | IC50 ([4]; read-out: IC50) [µM] | inhibition [5] [%] | IC50 [4] | Compound
26% | 21 | 96 | 65 | – | – | COc1ccc(-c2c(C)c3cc(Br)ccc3oc2=S)cc1OC
11% | 12 | 56 | 81 | – | – | COc1ccc(-c2cc3cc(Br)ccc3oc2=O)cc1OC
76% | 78 | 75 | – | 7 | – | Cc1c(-c2ccc(O)c(O)c2)c(=O)oc2c(Br)cc(Br)cc12
84% | 83 | – | 51 | – | – | CC(Cc1ccc(O)c(O)c1)C(C)Cc1ccc(O)c(O)c1 (configuration not stated) [NORDIHYDROGUAIARETIC ACID]
84% | 85 | 47 | – | – | Not Active | COc1ccc(-c2c(C)c3ccccc3o/c2=N/Nc2ccccc2)cc1
41% | 35 | 59 | 90 | – | – | Cc1c(-c2ccc(O)c(O)c2)c(=S)oc2ccc(Br)cc12
Not Active | 9 | 100 | 37 | – | – | CC(C)=CCOc1ccc(-c2c(C)c3cc(Br)cc(Br)c3oc2=O)cc1OCC=C(C)C
Not Active | 9 | 50 | – | – | Not Active | COc1ccc(-c2c(C)c3cc(Cl)ccc3oc2=S)cc1OC
11% | 68 | 64 | – | 1 | – | COc1ccc(-c2c(C)c3cc(-c4ccc(C=O)cc4)ccc3oc2=O)cc1OC
14% | 11 | 11 | – | 35 | – | COc1ccc(-c2c(C)c3ccccc3oc2=S)cc1
17% | 7 | 7 | – | 44 | – | COc1ccc(-c2ccc3oc(=O)c(-c4ccc(OC)c(OC)c4)c(C)c3c2)cc1
85% | 86 | 55 | – | 28 | – | COc1ccc(-c2c(C)c3cc(Br)ccc3o/c2=N/Nc2ccccc2)cc1OC
– | – | 63 | – | – | – | Cc1c(C)c2c(c(C)c1O)CCC(C)(C(=O)O)O2 (configuration not stated) [TROLOX]
77% | 62 | 75 | 75 | – | – | Cc1c(-c2ccc(O)c(O)c2)c(=O)oc2ccc(Br)cc12
78% | 80 | 26 | – | 26 | – | O=c1oc2ccc(Br)cc2cc1-c1ccc(O)c(O)c1
67% | 68 | 92 | 75 | – | – | CC(C)=CCOc1ccc(-c2c(C)c3cc(Br)ccc3oc2=O)cc1OCC=C(C)C
13% | 2 | 58 | – | – | – | COc1ccc(-c2c(C)c3cc(Br)cc(Br)c3oc2=O)cc1OC
Not Active | 5 | 99 | 40 | – | – | CC(C)=CCOc1ccc(-c2cc3cc(Br)ccc3oc2=O)cc1OCC=C(C)C
